{"source": "ChEMBL document CHEMBL3885881", "about": "“DrugMatrix”", "species": "Rattus norvegicus", "test": "DrugMatrix - Regimen: Daily Repeat", "format": "toxicity, organism-based, Sprague-Dawley", "design": "regimen Daily Repeat, gender Male, age 6-8 weeks", "conditions": "in vivo, po, 1500 mg/kg, route oral GAVAGE, dose level High, vehicle .5 % CMC; for ABSOLUTE BASOPHIL / ABSOLUTE EOSINOPHIL / ABSOLUTE LYMPHOCYTE / ABSOLUTE MONOCYTE / ABSOLUTE SEGMENTED NEUTROPHIL / BASOPHIL / EOSINOPHIL / ERYTHROCYTE COUNT / HEMATOCRIT / HEMOGLOBIN / LEUKOCYTE COUNT / LYMPHOCYTE / MEAN CORPUSCULAR HEMOGLOBIN / MEAN CORPUSCULAR HEMOGLOBIN CONCENTRATION / MEAN CORPUSCULAR VOLUME / MONOCYTE / NEUTROPHIL / NUCLEATED RED BLOOD CELLS / PLATELET COUNT: tissue Blood; for ALANINE AMINOTRANSFERASE / ALBUMIN / ALKALINE PHOSPHATASE / ASPARTATE AMINOTRANSFERASE / BLOOD UREA NITROGEN / CARBON DIOXIDE / CHLORIDE / CHOLESTEROL / CREATINE PHOSPHOKINASE / CREATININE / GLUCOSE / LACTATE DEHYDROGENASE / LIPASE / PHOSPHORUS / POTASSIUM / SODIUM / TOTAL BILIRUBIN / TOTAL PROTEIN / URIC ACID: tissue Plasma", "data": [{"smiles": "O=c1cnn([C@@H]2O[C@H](CO)[C@@H](O)[C@H]2O)c(=O)[nH]1", "note": "[6-AZAURIDINE]", "values": [{"measurement": "ABSOLUTE BASOPHIL", "setting": "72 h, time 3 day", "value": 0, "unit": "CELLS/uL"}, {"measurement": "ABSOLUTE EOSINOPHIL", "setting": "72 h, time 3 day", "value": 0, "unit": "CELLS/uL"}, {"measurement": "ABSOLUTE LYMPHOCYTE", "setting": "72 h, time 3 day", "value": 9340.33, "unit": "CELLS/uL"}, {"measurement": "ABSOLUTE MONOCYTE", "setting": "72 h, time 3 day", "value": 29.33, "unit": "CELLS/uL"}, {"measurement": "ABSOLUTE SEGMENTED NEUTROPHIL", "setting": "72 h, time 3 day", "value": 363.67, "unit": "CELLS/uL"}, {"measurement": "BASOPHIL", "setting": "72 h, time 3 day", "value": 0, "unit": "%"}, {"measurement": "EOSINOPHIL", "setting": "72 h, time 3 day", "value": 0, "unit": "%"}, {"measurement": "ERYTHROCYTE COUNT", "setting": "72 h, time 3 day", "value": 5.26, "unit": "x10E6/uL"}, {"measurement": "HEMATOCRIT", "setting": "72 h, time 3 day", "value": 32.03, "unit": "%"}, {"measurement": "HEMOGLOBIN", "setting": "72 h, time 3 day", "value": 12.07, "unit": "G/DL"}, {"measurement": "LEUKOCYTE COUNT", "setting": "72 h, time 3 day", "value": 9.73, "unit": "x10E3/uL"}, {"measurement": "LYMPHOCYTE", "setting": "72 h, time 3 day", "value": 96, "unit": "%"}, {"measurement": "MEAN CORPUSCULAR HEMOGLOBIN", "setting": "72 h, time 3 day", "value": 22.9, "unit": "pg"}, {"measurement": "MEAN CORPUSCULAR HEMOGLOBIN CONCENTRATION", "setting": "72 h, time 3 day", "value": 37.7, "unit": "G/DL"}, {"measurement": "MEAN CORPUSCULAR VOLUME", "setting": "72 h, time 3 day", "value": 60.9, "unit": "fL"}, {"measurement": "MONOCYTE", "setting": "72 h, time 3 day", "value": 0.33, "unit": "%"}, {"measurement": "NEUTROPHIL", "setting": "72 h, time 3 day", "value": 3.67, "unit": "%"}, {"measurement": "NUCLEATED RED BLOOD CELLS", "setting": "72 h, time 3 day", "value": "0 /100WBC"}, {"measurement": "PLATELET COUNT", "setting": "72 h, time 3 day", "value": 1317.67, "unit": "x10E3/uL"}, {"measurement": "ALANINE AMINOTRANSFERASE", "setting": "72 h, time 3 day", "value": 17.33, "unit": "u/L"}, {"measurement": "ALBUMIN", "setting": "72 h, time 3 day", "value": 4.3, "unit": "G/DL"}, {"measurement": "ALKALINE PHOSPHATASE", "setting": "72 h, time 3 day", "value": 341, "unit": "u/L"}, {"measurement": "ASPARTATE AMINOTRANSFERASE", "setting": "72 h, time 3 day", "value": 104.67, "unit": "u/L"}, {"measurement": "BLOOD UREA NITROGEN", "setting": "72 h, time 3 day", "value": 15.33, "unit": "mg/dL"}, {"measurement": "CARBON DIOXIDE", "setting": "72 h, time 3 day", "value": 18.67, "unit": "mmol/L"}, {"measurement": "CHLORIDE", "setting": "72 h, time 3 day", "value": 104.33, "unit": "MEQ/L"}, {"measurement": "CHOLESTEROL", "setting": "72 h, time 3 day", "value": 69.33, "unit": "mg/dL"}, {"measurement": "CREATINE PHOSPHOKINASE", "setting": "72 h, time 3 day", "value": 704, "unit": "u/L"}, {"measurement": "CREATININE", "setting": "72 h, time 3 day", "value": 0.25, "unit": "mg/dL"}, {"measurement": "GLUCOSE", "setting": "72 h, time 3 day", "value": 179.67, "unit": "mg/dL"}, {"measurement": "LACTATE DEHYDROGENASE", "setting": "72 h, time 3 day", "value": 167.67, "unit": "u/L"}, {"measurement": "LIPASE", "setting": "72 h, time 3 day", "value": 10, "unit": "u/L"}, {"measurement": "PHOSPHORUS", "setting": "72 h, time 3 day", "value": 12.03, "unit": "mg/dL"}, {"measurement": "POTASSIUM", "setting": "72 h, time 3 day", "value": 6.43, "unit": "MEQ/L"}, {"measurement": "SODIUM", "setting": "72 h, time 3 day", "value": 147.5, "unit": "MEQ/L"}, {"measurement": "TOTAL BILIRUBIN", "setting": "72 h, time 3 day", "value": 0.2, "unit": "mg/dL"}, {"measurement": "TOTAL PROTEIN", "setting": "72 h, time 3 day", "value": 5.87, "unit": "G/DL"}, {"measurement": "URIC ACID", "setting": "72 h, time 3 day", "value": 1.67, "unit": "mg/dL"}, {"measurement": "ABSOLUTE BASOPHIL", "setting": "120 h, time 5 day", "value": 0, "unit": "CELLS/uL"}, {"measurement": "ABSOLUTE EOSINOPHIL", "setting": "120 h, time 5 day", "value": 44.67, "unit": "CELLS/uL"}, {"measurement": "ABSOLUTE LYMPHOCYTE", "setting": "120 h, time 5 day", "value": 13100, "unit": "CELLS/uL"}, {"measurement": "ABSOLUTE MONOCYTE", "setting": "120 h, time 5 day", "value": 44.67, "unit": "CELLS/uL"}, {"measurement": "ABSOLUTE SEGMENTED NEUTROPHIL", "setting": "120 h, time 5 day", "value": 1177.33, "unit": "CELLS/uL"}, {"measurement": "BASOPHIL", "setting": "120 h, time 5 day", "value": 0, "unit": "%"}, {"measurement": "EOSINOPHIL", "setting": "120 h, time 5 day", "value": 0.33, "unit": "%"}, {"measurement": "ERYTHROCYTE COUNT", "setting": "120 h, time 5 day", "value": 4.96, "unit": "x10E6/uL"}, {"measurement": "HEMATOCRIT", "setting": "120 h, time 5 day", "value": 30, "unit": "%"}, {"measurement": "HEMOGLOBIN", "setting": "120 h, time 5 day", "value": 11.57, "unit": "G/DL"}, {"measurement": "LEUKOCYTE COUNT", "setting": "120 h, time 5 day", "value": 14.37, "unit": "x10E3/uL"}, {"measurement": "LYMPHOCYTE", "setting": "120 h, time 5 day", "value": 91, "unit": "%"}, {"measurement": "MEAN CORPUSCULAR HEMOGLOBIN", "setting": "120 h, time 5 day", "value": 23.37, "unit": "pg"}, {"measurement": "MEAN CORPUSCULAR HEMOGLOBIN CONCENTRATION", "setting": "120 h, time 5 day", "value": 38.53, "unit": "G/DL"}, {"measurement": "MEAN CORPUSCULAR VOLUME", "setting": "120 h, time 5 day", "value": 60.57, "unit": "fL"}, {"measurement": "MONOCYTE", "setting": "120 h, time 5 day", "value": 0.33, "unit": "%"}, {"measurement": "NEUTROPHIL", "setting": "120 h, time 5 day", "value": 8.33, "unit": "%"}, {"measurement": "NUCLEATED RED BLOOD CELLS", "setting": "120 h, time 5 day", "value": "0 /100WBC"}, {"measurement": "PLATELET COUNT", "setting": "120 h, time 5 day", "value": 1665.67, "unit": "x10E3/uL"}, {"measurement": "ALANINE AMINOTRANSFERASE", "setting": "120 h, time 5 day", "value": 14.33, "unit": "u/L"}, {"measurement": "ALBUMIN", "setting": "120 h, time 5 day", "value": 3.5, "unit": "G/DL"}, {"measurement": "ALKALINE PHOSPHATASE", "setting": "120 h, time 5 day", "value": 153, "unit": "u/L"}, {"measurement": "ASPARTATE AMINOTRANSFERASE", "setting": "120 h, time 5 day", "value": 98.33, "unit": "u/L"}, {"measurement": "BLOOD UREA NITROGEN", "setting": "120 h, time 5 day", "value": 16.33, "unit": "mg/dL"}, {"measurement": "CARBON DIOXIDE", "setting": "120 h, time 5 day", "value": 33, "unit": "mmol/L"}, {"measurement": "CHLORIDE", "setting": "120 h, time 5 day", "value": 105.33, "unit": "MEQ/L"}, {"measurement": "CHOLESTEROL", "setting": "120 h, time 5 day", "value": 68.67, "unit": "mg/dL"}, {"measurement": "CREATINE PHOSPHOKINASE", "setting": "120 h, time 5 day", "value": 888.33, "unit": "u/L"}, {"measurement": "CREATININE", "setting": "120 h, time 5 day", "value": 0.12, "unit": "mg/dL"}, {"measurement": "GLUCOSE", "setting": "120 h, time 5 day", "value": 159, "unit": "mg/dL"}, {"measurement": "LACTATE DEHYDROGENASE", "setting": "120 h, time 5 day", "value": 129, "unit": "u/L"}, {"measurement": "LIPASE", "setting": "120 h, time 5 day", "value": 9.33, "unit": "u/L"}, {"measurement": "PHOSPHORUS", "setting": "120 h, time 5 day", "value": 11.03, "unit": "mg/dL"}, {"measurement": "POTASSIUM", "setting": "120 h, time 5 day", "value": 6.72, "unit": "MEQ/L"}, {"measurement": "SODIUM", "setting": "120 h, time 5 day", "value": 145.83, "unit": "MEQ/L"}, {"measurement": "TOTAL BILIRUBIN", "setting": "120 h, time 5 day", "value": 0.2, "unit": "mg/dL"}, {"measurement": "TOTAL PROTEIN", "setting": "120 h, time 5 day", "value": 4.83, "unit": "G/DL"}, {"measurement": "URIC ACID", "setting": "120 h, time 5 day", "value": 1.5, "unit": "mg/dL"}]}]}
